Reference: PubChem BioAssay (NCI)
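Dose response: 5 concentrations. Exposure: 48 h. Format: 96-well plates. Endpoint: linear interpolation; highest concentration if not reached. GI50 = concentration required for 50% inhibition of growth. TGI denotes the concentration required for complete inhibition of growth.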

Assays:
Assay in all cases: NCI anticancer screen, dose series, 48 h
KM12 colon = system: KM12 colon
MALME-3M melanoma = system: MALME-3M melanoma
NCI-H226 lung = system: NCI-H226 lung
SK-OV-3 ovarian = system: SK-OV-3 ovarian
SK-MEL-28 melanoma = system: SK-MEL-28 melanoma
M14 melanoma = system: M14 melanoma
HOP-92 NSCLC = system: HOP-92 NSCLC
SN12C renal = system: SN12C renal
HCT-116 colon = system: HCT-116 colon
T-47D breast = system: T-47D breast

Row | SMILES | TGI (KM12 colon) | TGI (MALME-3M melanoma) | TGI (NCI-H226 lung) | TGI (SK-OV-3 ovarian) | TGI (SK-MEL-28 melanoma) | TGI (M14 melanoma) | TGI (HOP-92 NSCLC) | TGI (SN12C renal) | TGI (HCT-116 colon) | TGI (T-47D breast) | GI50 (KM12 colon) | GI50 (HCT-116 colon) | GI50 (MALME-3M melanoma) | GI50 (NCI-H226 lung) | GI50 (SK-OV-3 ovarian) | GI50 (SK-MEL-28 melanoma) | GI50 (M14 melanoma) | GI50 (HOP-92 NSCLC) | GI50 (SN12C renal) | GI50 (T-47D breast)
1 | CCCCCC1C2C(=O)NC(=O)C1C(=O)NC2=O (stereo not given) | > 100 µM | > 100 µM | > 100 µM | > 100 µM | > 100 µM | > 100 µM | > 100 µM | > 100 µM |  |  |  |  |  |  |  |  |  |  |  | 
2 | C/C=C\C(C)=C/C(C)C(=O)CC(O)CC1CC(=O)NC(=O)C1 (stereo not given) | > 100 µM |  | > 100 µM | > 100 µM | > 100 µM | > 100 µM | > 100 µM | > 100 µM | > 100 µM | > 100 µM |  |  |  |  |  |  |  |  |  | 
3 | O=C1c2cccc3cc4ccccc4c(c23)C(=O)N1CCCNCCNCCCN1C(=O)c2cccc3cc4ccccc4c(c23)C1=O | 1.29 µM | 1.8 µM |  | 1.65 µM |  | 2.21 µM |  | 1.86 µM | 0.168 µM | 2.54 µM |  |  |  |  |  |  |  |  |  | 
4 | N#CC1=C(N)Oc2c(ccc3ccccc23)C1c1ccccc1Cl (stereo not given) | 7.9 µM | 22.9 µM | 13.2 µM | 43.3 µM | 22.9 µM | 3.39 µM | 15.1 µM | 13.9 µM | 5.41 µM |  | 0.227 µM | 0.275 µM | 0.617 µM | 1.52 µM | 0.628 µM | 1.92 µM | 0.188 µM | 2.24 µM | 0.722 µM | 
5 | Oc1c(Br)cc(Br)c2cccnc12 | 23.4 µM | 19 µM | 30.2 µM | 21.1 µM | > 100 µM | 5.11 µM |  | 35.2 µM | 10.6 µM | 18.4 µM | 4.17 µM | 3.22 µM | 3.21 µM | 5.09 µM | 3.99 µM | 4.79 µM | 2.14 µM |  | 3.23 µM | 3.03 µM
6 | CC/C(=C(\c1ccccc1)c1ccc(OCC[N+](C)(C)C)cc1)c1ccccc1 | 29.8 µM | 28.6 µM | 26.7 µM | 34.5 µM | 22.2 µM | 30.1 µM |  | 25.7 µM | 31.7 µM |  |  |  |  |  |  |  |  |  |  | 
7 | Nc1cc2[nH]c(=O)c3cc(Cl)ccc3c2cc1Cl | > 100 µM | 44.6 µM | 28.1 µM | 15.8 µM | > 100 µM | > 100 µM |  | > 100 µM | 68.8 µM | > 100 µM |  |  |  |  |  |  |  |  |  | 
8 | COC(=O)[C@@H](C)C[C@H](Cc1ccccc1)NC(=O)c1cccc([C@@H](C[C@H](C(C)C)N(C)C(=O)[C@@H](NC(=O)[C@H]2CCCCN2C)C(C)C)OC(C)=O)n1 | > 16.7 µM | > 16.7 µM |  | > 16.7 µM |  | 0.224 µM | 0.114 µM | > 16.7 µM | > 6.68 µM |  | < 0.00167 µM | < 0.00167 µM | < 0.00167 µM |  | 0.00235 µM |  | < 0.00167 µM | < 0.00167 µM | 0.00266 µM | 
9 | CN(C)c1ccc(/C=C/C(=O)c2ccc(Nc3nc(Nc4ccc(F)cc4)nc(Nc4ccc(Cl)cc4)n3)cc2)cc1 | 23.2 µM | 33.8 µM | > 100 µM | 74.9 µM | 52.7 µM | 19.1 µM |  | > 100 µM | 15.5 µM | 45.2 µM | 5.75 µM | 3.3 µM | 10.7 µM | 15.6 µM | 19 µM | 3.88 µM | 4.29 µM |  | 15.3 µM | 3.33 µM
10 | CC(=O)NC(Cc1ccccc1)C(=S)N1CCCC1 (stereo not given) | > 100 µM | > 100 µM | > 100 µM | > 100 µM | > 100 µM | > 100 µM | > 100 µM | > 100 µM | > 100 µM |  |  |  |  |  |  |  |  |  |  | 
11 | CNCc1ccc(C)c(NC(=O)c2ccc(Nc3nc(-c4ccccc4)c4ccccc4n3)cc2)c1 | 3.88 µM |  | 4.9 µM | 4.08 µM |  | 3.4 µM | 3.24 µM |  | 3.1 µM | 5.59 µM | 1.97 µM | 1.68 µM |  | 1.98 µM | 2.18 µM |  | 1.83 µM | 0.687 µM |  | 2.26 µM
12 | O=C(Cc1nc2ccccc2s1)C(=O)Nc1ccccc1C(F)(F)F | > 100 µM | > 100 µM | > 100 µM | > 100 µM | > 100 µM | > 100 µM | > 100 µM | > 100 µM | > 100 µM |  |  |  |  |  |  |  |  |  |  | 
13 | NCCN.O=N[O-].O=N[O-].O=N[O-].O=N[O-].[Co+3].[K+] | > 100 µM | > 100 µM |  | > 100 µM | > 100 µM | > 100 µM | > 100 µM | > 100 µM | > 100 µM |  | > 100 µM | > 100 µM | > 100 µM |  | > 100 µM | > 100 µM | > 100 µM | 85.7 µM | > 100 µM | 
14 | Cc1ccc(S(=O)(=O)NC2(C=O)CCC(C(C)(C)C)CC2)cc1 (stereo not given) | 84.5 µM | > 100 µM | > 100 µM | > 100 µM |  | > 100 µM | 99.8 µM | 68.7 µM | 68.8 µM |  |  |  |  |  |  |  |  |  |  | 
15 | CCc1cccc(C(C)C)c1C1C(=O)C(=O)N(c2nc3ccccc3s2)C(=O)C1=O | > 100 µM | > 100 µM | > 100 µM | > 100 µM | > 100 µM | > 100 µM | > 100 µM | > 100 µM | > 100 µM |  |  |  |  |  |  |  |  |  |  | 
16 | O=C(/C=C\c1ccc(Cl)c(Cl)c1)c1ccccc1 | 8.88 µM |  | 30.7 µM | 29.8 µM | 27.3 µM | 21.5 µM |  | 19.9 µM | 3.89 µM |  | 3.07 µM | 1.91 µM |  | 13.9 µM | 14.1 µM | 13.9 µM | 7.37 µM |  | 6.77 µM | 
17 | Cc1nn(C(=O)CC(=O)Nc2ccccc2Cl)c(C)c1N=Nc1ccccc1Cl | > 100 µM | > 100 µM |  | > 100 µM | > 100 µM | > 100 µM | > 100 µM | > 100 µM | > 100 µM |  |  |  |  |  |  |  |  |  |  | 
18 | O=[N+]([O-])c1ccc(-c2ccc(C3=Nn4c(nnc4-c4ccc(Cl)cc4)SC3)o2)cc1 | > 100 µM | > 91.6 µM | > 100 µM | > 100 µM | > 100 µM | > 100 µM | > 75.8 µM | > 100 µM | > 100 µM |  |  |  |  |  |  |  |  |  |  | 
